Laboratory results published in ChEMBL document CHEMBL1201862, “PubChem BioAssay data set” (2004).
“And” between values parts separate entries of the source, which are not always exact repeats. Identical values can stand only once.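 Each compound was tested at five concentrations against cells in 96-well plates for 48 hours. The concentration for 50% growth inhibition is given as GI50.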 The source made the active and inactive calls. Cut-off read from the data, not from the text of the source: active = GI50 up to about 1.1 µM and inactive = higher.

What was measured:
Assay in all cases: inhibition of tumour cell growth, NCI panel, 48 h
BT-549 = tested on: BT-549
COLO 205 = tested on: COLO 205
DU-145 = tested on: DU-145
EKVX = tested on: EKVX
HOP-62 = tested on: HOP-62
Hs-578T = tested on: Hs-578T
LOX IMVI = tested on: LOX IMVI
NCI-H226 = tested on: NCI-H226
NCI/ADR-RES = tested on: NCI/ADR-RES
OVCAR-3 = tested on: OVCAR-3
OVCAR-8 = tested on: OVCAR-8
RXF 393 = tested on: RXF 393
SF-539 = tested on: SF-539
SN12C = tested on: SN12C
SR = tested on: SR
TK-10 = tested on: TK-10
UO-31 = tested on: UO-31
SF-268 = tested on: SF-268
SK-MEL-5 = tested on: SK-MEL-5
SNB-75 = tested on: SNB-75

Measured: GI50

CC1CCC2(C(=O)O)CCC3(C)C(=CCC4C5(C)CCC(O)C(C)(C)C5CCC43C)C2C1C (centres undefined)
inactive: BT-549 19 µM | COLO 205 13.7 µM and 14.7 µM | DU-145 9.16 µM | EKVX 10.6 µM and 13.8 µM | HOP-62 16.5 µM and 9.33 µM | Hs-578T 8.71 µM | LOX IMVI 4.13 µM and 6.59 µM | NCI-H226 19.7 µM and 11.1 µM | NCI/ADR-RES 14.7 µM and 11.2 µM | OVCAR-3 7.52 µM and 13.8 µM | OVCAR-8 13.8 µM and 8.3 µM | RXF 393 6.12 µM and 11.4 µM | SF-539 13.4 µM and 11 µM | SN12C 10.3 µM and 18 µM | SR 19.5 µM | TK-10 19.7 µM | UO-31 6.75 µM and 4.07 µM

O=[N+]([O-])c1ccc2c(Nc3ccccc3-c3ccccc3Nc3c4ccccc4nc4cc([N+](=O)[O-])ccc34)c3ccccc3nc2c1
inactive: BT-549 1.16 µM | COLO 205 2.74 µM | DU-145 6.89 µM | EKVX 11.8 µM | HOP-62 9.33 µM | Hs-578T 2.47 µM | LOX IMVI 9.57 µM | NCI-H226 4.11 µM | NCI/ADR-RES 7.41 µM | OVCAR-3 3.18 µM | OVCAR-8 3.93 µM | RXF 393 1.52 µM | SF-268 6.55 µM | SF-539 4.59 µM | SK-MEL-5 1.99 µM | SN12C 2.54 µM | SNB-75 4.19 µM | SR 1.69 µM | TK-10 4.46 µM | UO-31 3.26 µM

O=C(Cc1ccc(Cl)cc1)Nc1ccc2oc(-c3ccccc3)nc2c1
inactive: BT-549 > 100 µM | COLO 205 > 100 µM | DU-145 > 100 µM | EKVX 30.8 µM | HOP-62 35.6 µM | Hs-578T > 100 µM | LOX IMVI > 100 µM | NCI-H226 27.6 µM | NCI/ADR-RES 57.8 µM | OVCAR-3 > 100 µM | OVCAR-8 32.7 µM | RXF 393 > 100 µM | SF-268 74 µM | SF-539 35.2 µM | SK-MEL-5 > 100 µM | SN12C 84.9 µM | SNB-75 24.4 µM | SR > 100 µM | TK-10 > 100 µM

COc1cc(/C=C/C=C2\CC(C)C/C(=C\C=C\c3ccc(O)c(OC)c3)C2=O)ccc1O (centres undefined)
inactive: BT-549 8.61 µM | COLO 205 16.7 µM | DU-145 19.5 µM | EKVX 10.3 µM | HOP-62 17.4 µM | Hs-578T 10 µM | LOX IMVI 12.4 µM | NCI-H226 14.8 µM | NCI/ADR-RES 25.1 µM | OVCAR-3 10.8 µM | OVCAR-8 11.5 µM | RXF 393 4.55 µM | SF-268 10.3 µM | SF-539 22.1 µM | SK-MEL-5 10.5 µM | SN12C 31.3 µM | SNB-75 15.1 µM | SR 1.69 µM | TK-10 3.05 µM | UO-31 5.06 µM

NS(=O)(=O)c1ccc(NCc2cccc3c(=O)c4ccc(Cl)cc4oc23)cc1
inactive: BT-549 42.5 µM | COLO 205 55.1 µM | DU-145 30.3 µM | EKVX > 33.8 µM | HOP-62 39.7 µM | Hs-578T 20 µM | LOX IMVI 20.9 µM | NCI-H226 > 76.7 µM | NCI/ADR-RES 32.5 µM | OVCAR-3 54.8 µM | OVCAR-8 24.2 µM | RXF 393 27.1 µM | SF-268 19.5 µM | SF-539 14.2 µM | SK-MEL-5 59.4 µM | SN12C > 56.6 µM | SNB-75 37.8 µM | SR 4.68 µM | TK-10 > 72.9 µM | UO-31 25.5 µM

N=C(N)SC1c2ccccc2-c2cc([N+](=O)[O-])ccc21 (centres undefined)
inactive: BT-549 6.05 µM | COLO 205 2.94 µM | DU-145 3.88 µM | EKVX 10.4 µM | HOP-62 6.56 µM | Hs-578T 3.1 µM | LOX IMVI 5.57 µM | NCI-H226 7.53 µM | NCI/ADR-RES 3.01 µM | OVCAR-3 2.69 µM | OVCAR-8 8.99 µM | RXF 393 3.5 µM | SF-268 4.48 µM | SF-539 3.96 µM | SK-MEL-5 3.08 µM | SN12C 8.51 µM | SNB-75 2.02 µM | SR 3.86 µM | TK-10 8.24 µM | UO-31 8.13 µM

[N-]=[N+]=NC1=C(c2ccccc2)C(=O)c2cccc3cccc1c23
inactive: BT-549 8.17 µM | COLO 205 > 100 µM | DU-145 28.9 µM | HOP-62 15.2 µM | Hs-578T 10.1 µM | LOX IMVI 14.4 µM | NCI/ADR-RES 45.5 µM | OVCAR-3 16.4 µM | RXF 393 19.7 µM | SF-268 22.3 µM | SF-539 16.1 µM | SK-MEL-5 2.77 µM | SN12C 29.9 µM | SNB-75 10.2 µM | SR 11.4 µM | TK-10 23.2 µM | UO-31 26.1 µM

COC1=C(OC)C(=O)C(Cc2c(Cl)nc3sc(C)cn23)=C(C)C1=O
inactive: BT-549 18 µM | COLO 205 19.6 µM | DU-145 22.1 µM | EKVX 17.3 µM | HOP-62 19.3 µM | Hs-578T 19.7 µM | LOX IMVI 11.7 µM | NCI/ADR-RES 14.6 µM | OVCAR-3 12.2 µM | OVCAR-8 19.1 µM | RXF 393 20.3 µM | SF-268 16.6 µM | SF-539 19 µM | SK-MEL-5 11.2 µM | SN12C 15.9 µM | SR 16.7 µM | TK-10 16.4 µM | UO-31 17.1 µM

O=C(/C=C/c1ccsc1)c1cccs1
inactive: BT-549 20.8 µM | COLO 205 34.1 µM | DU-145 > 100 µM | EKVX 41.3 µM | HOP-62 > 100 µM | Hs-578T 40.3 µM | NCI-H226 > 100 µM | NCI/ADR-RES 20.7 µM | OVCAR-3 22.1 µM | OVCAR-8 > 10 µM | RXF 393 18.9 µM | SF-268 28.2 µM | SF-539 32.9 µM | SK-MEL-5 14.6 µM | SN12C 19.5 µM | SNB-75 > 100 µM | SR > 10 µM | TK-10 23.1 µM | UO-31 18.5 µM

CC(=O)Nc1sccc1S(=O)(=O)c1ccc(Cl)cc1
inactive: BT-549 > 100 µM | COLO 205 > 100 µM | DU-145 > 100 µM | EKVX > 100 µM | Hs-578T > 100 µM | NCI-H226 > 100 µM | NCI/ADR-RES > 100 µM | OVCAR-3 > 100 µM | OVCAR-8 > 100 µM | RXF 393 > 100 µM | SF-268 > 100 µM | SF-539 > 100 µM | SK-MEL-5 > 100 µM | SN12C > 100 µM | SNB-75 55.6 µM | SR > 100 µM | TK-10 > 100 µM | UO-31 > 100 µM

O=[N+]([O-])c1ccc(O)c(/C=N/c2nc(-c3ccccc3)cs2)c1
inactive: BT-549 17.1 µM | COLO 205 19.6 µM | DU-145 30.4 µM | EKVX 31.3 µM | HOP-62 26.7 µM | Hs-578T 25.8 µM | LOX IMVI 15.8 µM | NCI-H226 24.7 µM | NCI/ADR-RES 29.7 µM | OVCAR-3 35.2 µM | OVCAR-8 25.9 µM | RXF 393 20.8 µM | SF-268 27.9 µM | SK-MEL-5 13.2 µM | SN12C 34.8 µM | SNB-75 23 µM | SR 3.03 µM | TK-10 42.5 µM | UO-31 26.4 µM

CSc1ccc(C2C(Cl)C(=O)N2NC(=O)c2c(Cl)c(Cl)c(Cl)c(Cl)c2-c2nc3ccccc3[nH]2)cc1 (centres undefined)
inactive: BT-549 17.2 µM | COLO 205 20.3 µM | DU-145 15.8 µM | EKVX 16.5 µM | HOP-62 79.3 µM | Hs-578T 32.5 µM | LOX IMVI 4.18 µM | NCI-H226 16.1 µM | NCI/ADR-RES 29.9 µM | OVCAR-3 21.8 µM | OVCAR-8 18.8 µM | RXF 393 1.97 µM | SF-268 19.1 µM | SF-539 20.8 µM | SK-MEL-5 17.1 µM | SN12C 15.8 µM | SNB-75 15.2 µM | SR 2.9 µM | UO-31 3.93 µM

Clc1ccccc1NN(Cc1ccncc1)c1ccccc1Cl
inactive: BT-549 19.1 µM | COLO 205 14.4 µM | DU-145 17.5 µM | EKVX 14 µM | HOP-62 15.8 µM | Hs-578T 18.2 µM | LOX IMVI 16.7 µM | NCI-H226 21 µM | NCI/ADR-RES 13.8 µM | OVCAR-3 13.5 µM | OVCAR-8 13.8 µM | RXF 393 16 µM | SF-268 18.1 µM | SF-539 18.2 µM | SK-MEL-5 13.9 µM | SN12C 13.6 µM | SNB-75 17.5 µM | SR 13.2 µM | UO-31 24.5 µM

[O-][s+]1c2c(Cc3ccccc3)c(Cc3ccccc3)c1CCc1cccc(c1)CC2
inactive: BT-549 13.8 µM | COLO 205 17.5 µM | DU-145 15.8 µM | EKVX 13.2 µM | Hs-578T 18.2 µM | LOX IMVI 14 µM | NCI-H226 19.1 µM | NCI/ADR-RES 14.4 µM | OVCAR-3 11.1 µM | OVCAR-8 13.3 µM | RXF 393 3.86 µM | SF-268 15.6 µM | SF-539 18.7 µM | SK-MEL-5 14.9 µM | SN12C 16.2 µM | SNB-75 13 µM | SR 17.2 µM | TK-10 19.1 µM | UO-31 12.9 µM
